From PubChem BioAssay AID1963825 (Molecular Pharmacology Branch, DTP, NCI, 2024)

Assay: Anticancer human tumor 997537-175-T-J1-PDC patient-derived colon adenocarcinoma cell line growth inhibition [POLQ]
Details: 997537-175-T-J1-PDC complex spheroid viability, combination with POLQ inhibitors; for IC50: curve of first compound; for viability, T/C: stronger effect = lower value
In short: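 PDC + HUVEC + MSC complex spheroids; POLQ inhibitors ± partner drugs; top conc. at/near clinical Cmax, else 10 microM (SN-38 1 microM), half-log dilutions; 37 degrees C, 5% CO2.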

[1] = second compound 0.0316 µM, first compound 0.0316 µM
[2] = second compound 0.0316 µM, first compound 0.1 µM
[3] = second compound 0.0316 µM, first compound 0.316 µM
[4] = second compound 0.0316 µM, first compound 1 µM
[5] = second compound 0.0316 µM, first compound 3.16 µM
[6] = second compound 0.0316 µM, first compound 10 µM
[7] = second compound 0.1 µM, first compound 0.0316 µM
[8] = second compound 0.1 µM, first compound 0.1 µM
[9] = second compound 0.1 µM, first compound 0.316 µM
[10] = second compound 0.1 µM, first compound 1 µM
[11] = second compound 0.1 µM, first compound 3.16 µM
[12] = second compound 0.1 µM, first compound 10 µM
[13] = second compound 0.316 µM, first compound 0.0316 µM
[14] = second compound 0.316 µM, first compound 0.1 µM
[15] = second compound 0.316 µM, first compound 0.316 µM
[16] = second compound 0.316 µM, first compound 1 µM
[17] = second compound 0.316 µM, first compound 3.16 µM
[18] = second compound 0.316 µM, first compound 10 µM
[19] = second compound 1 µM, first compound 0.0316 µM
[20] = second compound 1 µM, first compound 0.1 µM
[21] = second compound 1 µM, first compound 0.316 µM
[22] = second compound 1 µM, first compound 1 µM
[23] = second compound 1 µM, first compound 3.16 µM
[24] = second compound 1 µM, first compound 10 µM
[25] = second compound 3.16 µM, first compound 0.0316 µM
[26] = second compound 3.16 µM, first compound 0.1 µM
[27] = second compound 3.16 µM, first compound 0.316 µM
[28] = second compound 3.16 µM, first compound 1 µM
[29] = second compound 3.16 µM, first compound 3.16 µM
[30] = second compound 3.16 µM, first compound 10 µM
[31] = second compound 10 µM, first compound 0.0316 µM
[32] = second compound 10 µM, first compound 0.1 µM
[33] = second compound 10 µM, first compound 0.316 µM
[34] = second compound 10 µM, first compound 1 µM
[35] = second compound 10 µM, first compound 3.16 µM
[36] = second compound 10 µM, first compound 10 µM
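Also: luminescence signal used as a surrogate for viable cells; spheroids exposed to drugs for seven days before readout.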

CCc1cc2c(N3CCc4c(cc(Cn5ccnc5)cc4-c4cn(C)nc4C(F)(F)F)C3=O)ccnc2c(OC)n1 + Nc1ccc(C#CCN(C(=O)Cc2ncc(C(F)(F)F)cc2C(F)(F)F)c2ccc(F)cc2)nn1
IC50 (second compound 0.0316 µM): > 10 µM
IC50 (second compound 0.1 µM): > 10 µM
IC50 (second compound 0.316 µM): > 10 µM
IC50 (second compound 1 µM): > 10 µM
IC50 (second compound 3.16 µM): > 10 µM
IC50 (second compound 10 µM): > 10 µM
viability, T/C [1]: 89.5%
viability, T/C [2]: 110%
viability, T/C [3]: 94.7%
viability, T/C [4]: 97.2%
viability, T/C [5]: 85.9%
viability, T/C [6]: 57.8%
viability, T/C [7]: 94.6%
viability, T/C [8]: 98.2%
viability, T/C [9]: 87%
viability, T/C [10]: 114%
viability, T/C [11]: 82.1%
viability, T/C [12]: 63.2%
viability, T/C [13]: 92.4%
viability, T/C [14]: 93.5%
viability, T/C [15]: 83.5%
viability, T/C [16]: 94.6%
viability, T/C [17]: 68.4%
viability, T/C [18]: 61.8%
viability, T/C [19]: 103%
viability, T/C [20]: 104%
viability, T/C [21]: 97.3%
viability, T/C [22]: 77%
viability, T/C [23]: 77.4%
viability, T/C [24]: 86.9%
viability, T/C [25]: 97%
viability, T/C [26]: 76.5%
viability, T/C [27]: 90.5%
viability, T/C [28]: 91.2%
viability, T/C [29]: 71.6%
viability, T/C [30]: 64.1%
viability, T/C [31]: 97.4%
viability, T/C [32]: 96.2%
viability, T/C [33]: 101%
viability, T/C [34]: 91%
viability, T/C [35]: 79.5%
viability, T/C [36]: 75.5%

CNCc1ccc(-c2[nH]c3cc(F)cc4c3c2CCNC4=O)cc1 + Nc1ccc(C#CCN(C(=O)Cc2ncc(C(F)(F)F)cc2C(F)(F)F)c2ccc(F)cc2)nn1
IC50 (second compound 0.0316 µM): > 10 µM
IC50 (second compound 0.1 µM): > 10 µM
IC50 (second compound 0.316 µM): > 10 µM
IC50 (second compound 1 µM): > 10 µM
IC50 (second compound 3.16 µM): > 10 µM
IC50 (second compound 10 µM): > 10 µM
viability, T/C [1]: 106%
viability, T/C [2]: 102%
viability, T/C [3]: 100%
viability, T/C [4]: 97.1%
viability, T/C [5]: 103%
viability, T/C [6]: 104%
viability, T/C [7]: 98.6%
viability, T/C [8]: 102%
viability, T/C [9]: 93.2%
viability, T/C [10]: 95.5%
viability, T/C [11]: 99.2%
viability, T/C [12]: 101%
viability, T/C [13]: 87.3%
viability, T/C [14]: 108%
viability, T/C [15]: 106%
viability, T/C [16]: 90.8%
viability, T/C [17]: 97.7%
viability, T/C [18]: 99.7%
viability, T/C [19]: 90%
viability, T/C [20]: 108%
viability, T/C [21]: 102%
viability, T/C [22]: 94.6%
viability, T/C [23]: 110%
viability, T/C [24]: 89.8%
viability, T/C [25]: 93.1%
viability, T/C [26]: 95.6%
viability, T/C [27]: 85.1%
viability, T/C [28]: 99.1%
viability, T/C [29]: 96.2%
viability, T/C [30]: 111%
viability, T/C [31]: 87.4%
viability, T/C [32]: 104%
viability, T/C [33]: 101%
viability, T/C [34]: 96.8%
viability, T/C [35]: 110%
viability, T/C [36]: 114%
